Consider ten compounds from ChEMBL document CHEMBL5325432, “Systematic study of 1,2,3-triazolyl sterols for the development of new drugs against parasitic Neglected Tropical Diseases” (Eur J Med Chem, 2023).

Series [1] can be described thus: Selectivity index, ratio of IC50 for cytotoxicity against African green monkey Vero cells to IC50 for antiparasitic activity against Trypanosoma brucei assessed as parasite growth inhibition. It is filed as toxicity, cell-based. The following applies: read-out: Ratio IC50.
Series [2] is described as follows: Selectivity index, ratio of IC50 for cytotoxicity against African green monkey Vero cells to IC50 for antiparasitic activity against Trypanosoma cruzi epimastigotes assessed as parasite growth inhibition. The following applies: read-out: Ratio IC50. Type of series: toxicity, cell-based.
The test system of the next series is Trypanosoma brucei. Kind of series: Antiparasitic activity against Trypanosoma brucei assessed as parasite growth inhibition incubated for 3 days by Alamar blue assay. It is filed as functional, organism-based. The following applies: 72 h. In general terms: Resazurin is reduced to fluorescent resorufin, in cell work by metabolically active cells.
A further series deals with Leishmania donovani. Description: Antileishmanial activity against Leishmania donovani S1 promastigotes assessed as parasite growth inhibition incubated for 72 hrs by Alamar blue assay. The following applies: S1, 72 h. It is filed as functional, organism-based.
In a further series the test system is Trypanosoma cruzi. Kind of series: Antiparasitic activity against Trypanosoma cruzi epimastigotes assessed as parasite growth inhibition incubated for 14 days by Alamar blue assay. Type of series: functional, organism-based. The following applies: 336 h.
Series [3] can be described thus: Cytotoxicity against African green monkey Vero cells incubated for 48 hrs. Type of series: toxicity, cell-based. The following applies: African green monkey (Chlorocebus sabaeus).
Series [4] in a line: Selectivity index, ratio of IC50 for cytotoxicity against African green monkey Vero cells to IC50 for antileishmanial activity against Leishmania donovani S1 promastigotes assessed as parasite growth inhibition. The following applies: read-out: Ratio IC50. Type of series: toxicity, cell-based.

Usually IC50 stands for the midpoint of a concentration-inhibition curve.

Consider `C#CCN[C@@H](C)[C@H]1CC[C@H]2[C@@H]3CC=C4C[C@@H](OC(C)=O)CC[C@]4(C)[C@H]3CC[C@]12C`, for which the selectivity ratio in series [1] was above 6.44; in series [2], above 1.31. The IC50 was 1.8 µM with Trypanosoma brucei, above 10 µM in the series on Leishmania donovani and 8.88 µM in the series on Trypanosoma cruzi. In series [3], this compound yielded an IC50 at 48 h above 11.9 µM.

Consider `C[C@@H](NCc1cn(CCCc2ccccc2)nn1)[C@H]1CC[C@H]2[C@@H]3CC=C4C[C@@H](O)CC[C@]4(C)[C@H]3CC[C@]12C`, for which the selectivity ratio in series [1] is above 5.18; in series [2], above 1.45; in series [4] it was above 5. Moreover, the IC50 worked out at 1.82 µM in the series on Trypanosoma brucei, 1.94 µM with Leishmania donovani and 6.48 µM in the series with Trypanosoma cruzi. In series [3], this compound had an IC50 at 48 h above 9.42 µM.

With `CCCCCCCCn1cc(CN[C@@H](C)[C@H]2CC[C@H]3[C@@H]4CC=C5C[C@@H](O)CC[C@]5(C)[C@H]4CC[C@]23C)nn1`, the selectivity ratio in series [1] is above 17.8; in series [2], above 5.02; in series [4], above 6.67. Also, the IC50 in the series with Trypanosoma brucei stood at 0.55 µM; in the series on Leishmania donovani it was 1.47 µM; in the series with Trypanosoma cruzi, 1.95 µM. The IC50 at 48 h in series [3] was above 9.79 µM.

As to `CC(=O)O[C@H]1CC[C@@]2(C)C(=CC[C@H]3[C@@H]4CC[C@H]([C@@H](C)NCc5cn(CCCc6ccccc6)nn5)[C@@]4(C)CC[C@@H]32)C1`, the values for the selectivity ratio in series [1] and in series [2] were above 44.7 and above 1.99, respectively. The values for the IC50 with Trypanosoma brucei, with Leishmania donovani and in the series on Trypanosoma cruzi were 0.2 µM, above 10 µM and 4.5 µM, respectively. Besides, in series [3], the IC50 at 48 h was above 8.95 µM.

Regarding `C[C@H](NCc1cn(Cc2ccccc2)nn1)[C@H]1CC[C@H]2[C@@H]3CC=C4C[C@@H](O)CC[C@]4(C)[C@H]3CC[C@]12C`, the selectivity ratio is above 15 in series [1], above 31 in series [2] and above 7.69 in series [4]. Besides, the IC50 turned out to be 0.68 µM in the series on Trypanosoma brucei, 1.33 µM in the series on Leishmania donovani and 0.33 µM in the series with Trypanosoma cruzi. Further, the IC50 at 48 h in series [3] was above 10.2 µM.

Turning to `CC(C)=CCC/C(C)=C/Cn1cc(CN[C@@H](C)[C@H]2CC[C@H]3[C@@H]4CC=C5C[C@@H](O)CC[C@]5(C)[C@H]4CC[C@]23C)nn1`, the values for the selectivity ratio in series [1], in series [2] and in series [4] were above 14.6, above 2.95 and above 5.56, respectively. Besides, the figures for the IC50 with Trypanosoma brucei, in the series on Leishmania donovani and in the series on Trypanosoma cruzi were 0.64 µM, 1.68 µM and 3.17 µM, respectively. The IC50 at 48 h in series [3] is above 9.35 µM.

Take `CCCCCc1cn(C[C@](C)(O)[C@H]2CC[C@H]3[C@@H]4CC=C5C[C@@H](O)CC[C@]5(C)[C@H]4CC[C@@]32C)nn1`: the selectivity ratio was above 59.8 in series [1] and above 1.68 in series [2]. For the same compound, the IC50 in the series with Trypanosoma brucei is 0.18 µM; in the series on Leishmania donovani, above 10 µM; in the series with Trypanosoma cruzi, 6.33 µM. In series [3], this compound showed an IC50 at 48 h above 10.6 µM.

With `C[C@@H](NCc1cn(Cc2ccccc2)nn1)[C@H]1CC[C@H]2[C@@H]3CC=C4C[C@@H](O)CC[C@]4(C)[C@H]3CC[C@]12C`, the selectivity ratio in series [1] was above 5.78; in series [2] it was above 4.14; in series [4] it was above 1.67. Besides, the figures for the IC50 in the series with Trypanosoma brucei, with Leishmania donovani and in the series with Trypanosoma cruzi were 1.77 µM, 6.14 µM and 2.47 µM, respectively. Moreover, the IC50 at 48 h in series [3] is above 10.2 µM.

Consider `O=C(Cn1ccnc1[N+](=O)[O-])NCc1ccccc1` [BENZNIDAZOLE], for which the selectivity ratio in series [2] was found to be 1.9. Besides, the IC50 in the series on Trypanosoma cruzi worked out at 7.4 µM.

As for `CC1CS(=O)(=O)CCN1/N=C/c1ccc([N+](=O)[O-])o1` (configuration not stated) [NIFURTIMOX], the figures for the selectivity ratio in series [1] and in series [2] were 18.8 and 15.2, respectively.
